# Counter-ions that a name gives are not always drawn.
# Legend:
# [1] = target: T1, NMDA receptor glycine site (Rattus norvegicus, UniProt P35439); test: Test A: Inhibition of binding of [3H]-MDL105,519
# T1 construct: fresh brain tissue including cerebral cortex and hippocampus from male Sprague Dawley rats was homogenized; tissue Analytical Biological Services Inc; host or cells: rat brain membranes (cerebral cortex and hippocampus, male Sprague Dawley rats)
# Experimental: Test A: Inhibition of Binding of [^3H]-MDL105,519:
# Binding of compounds to the NMDA receptor glycine site may be assessed by measuring the ability of test compounds to inhibit the binding of tritiated MDL105,519 to brain membranes bearing the receptor.
# Rat Brain Membranes: The rat brain membranes used in the experiments were obtained from Analytical Biological Services Inc., and were prepared substantially in accordance with the method of B. M. Baron et al., J. Pharmacol. Exp. Ther. 250, 162 (1989). Briefly, fresh brain tissue including cerebral cortex and hippocampus from male Sprague Dawley rats was homogenized in 0.32 M sucrose and centrifuged at low speed to separate cellular membranes from other cellular components. The membranes were then washed 3 times using deionized water, followed by treatment with 0.04% Triton X-100. Finally, membranes were washed six times in 50 mM Tris citrate buffer, pH 7.4, and frozen at −80° C. until use.
# [^3]MDL105,519 (72 Ci/mmol) was purchased from Amersham. Cold MDL105,519 was purchased from Sigma/RBI. Binding assays were performed substantially in accordance with the protocol of B. M. Baron et al., J. Pharmacol. Exp. Ther. 279, 62 (1996), as follows. On the day of the experiment, brain membranes were thawed at room temperature and suspended in 50 mM tris acetate buffer, pH 7.4 (“TAB”). Seventy-five micro grams per milliliter protein (by using the BioRad dye) were used for competition binding. The experiments were carried out using 96-well plates. Membranes were incubated with […] of compounds of various concentrations and 1.2 nM [^3H]MDL105,519 for 30 minutes at room temperature in a total volume of 250 μL. Non specific binding was determined by using 100 μM of unlabeled MDL105,519. The unlabeled MDL105,519 and compounds were dissolved as 12.5 mM stock solutions in DMSO. Final DMSO concentration in each well was kept below 1%, which concentration was found not to alter the binding results. After incubation, unbound [^3H]MDL105,519 was removed by filtration onto GF/B Unifilter plates using a Packard harvester. Filters were washed four times with ice cold TAB (total of 1.2 mL buffer). The plates were dried overnight at room temperature and bound radioactivity was measured on a Packard TopCount after the addition of 45 μL per well of the MICROSCINT O.
# Human Brain Membranes: Human brain membranes were obtained from Analytical Biological Services Inc., and assays were performed as described for rat membranes.
# Data analysis: Data was analyzed using a Microsoft Excel spreadsheet and GraphPad Prizm software and potency of compounds is expressed as the Ki (nM).
melting point,Ki [1],SMILES
238 to 241 °C,,"O=c1c2ccc(Cl)cc2[nH]c2c(O)nn(CC#Cc3ccncc3)c(=O)c12 (as salt: methanesulfonate) [Ex. 1, 7-Chloro-4-hydroxy-2-(3-(4-pyridyl)prop-2-ynyl)1,2,5,10-tetrahydropyridazino[4,5-b]quinoline-1,10-dione 1,3 methanesulfonate]"
,67.6 nM,"O=c1c2ccc(Cl)cc2[nH]c2c(O)nn(CC#Cc3ccncc3)c(=O)c12 [Ex. 1, 7-Chloro-4-hydroxy-2-(3-(4-pyridyl)prop-2-ynyl)1,2,5,10-tetrahydropyridazino[4,5-b]quinoline-1,10-dione 1,3 methanesulfonate]"
220 to 222 °C,7.86 nM,"O=c1c2ccc(Cl)cc2[nH]c2c(O)nn(CC#Cc3cccc(Cl)c3)c(=O)c12 [Ex. 2, 7-Chloro-4-hydroxy-2-[3-(3-chlorophenyl)prop-2-ynyl]-1,2,5,10-tetrahydropyridazino[4,5-b]quinoline-1,10-dione]"
251 to 252 °C,86.6 nM,"O=c1c2ccc(Cl)cc2[nH]c2c(O)nn(CC#Cc3ccc(Cl)cc3)c(=O)c12 [Ex. 3, 7-Chloro-4-hydroxy-2-[3-(4-chlorophenyl)prop-2-ynyl]-1,2,5,10-tetrahydropyridazino[4,5-b]quinoline-1,10-dione]"
255 to 257 °C,113 nM,"O=c1c2ccc(Cl)cc2[nH]c2c(O)nn(CC#Cc3ccccc3Cl)c(=O)c12 [Ex. 4, 7-Chloro-4-hydroxy-2-[3-(2-chlorophenyl)prop-2-ynyl]-1,2,5,10-tetrahydropyridazino[4.5-b]quinoline-1.10-dione]"
227 to 229 °C,14 nM,"CS(=O)(=O)O.O=c1c2ccc(Cl)cc2[nH]c2c(O)nn(CC#Cc3cccnc3)c(=O)c12 [Ex. 5, 7-Chloro-4-hydroxy-2-(3-(3-pyridyl)prop-2-ynyl)-1,2,5,10-tetrahydropyridazino[4,5-b]quinoline-1,10-dione methanesulfonate]"
,106 nM,"O=c1c2ccc(Cl)cc2[nH]c2c(O)nn(CC#Cc3ccc(Cl)nc3)c(=O)c12 [Ex. 6, 7-Chloro-2-[3-(6-chloro(3-pyridyl))prop-2-ynyl]-4-hydroxy-2,5-dihydropyridazino[4,5-b]quinoline-1,10-dione]"
